Measurements as given in patent US9549557B2, “Insecticidal synergistic combinations of phthaldiamide derivatives and fipronil or ethiprole” (BAYER CROPSCIENCE AKTIENGESELLSCHAFT, priority 2013, dated 2017).

How the values were obtained:
[1] = system: mustard beetle larvae (Phaedon cochleariae); test: Phaedon cochleariae - spray test; format: in vivo; details: 48 h
Method: (§1) The expected efficacy of a given combination of two compounds is calculated as follows (see Colby, S. R., “Calculating Synergistic and antagonistic Responses of Herbicide Combinations”, Weeds 15, pp. 20-22, 1967):
(§2) • X is the efficacy expressed in % mortality of the untreated control for test compound A at a concentration of m ppm respectively m g/ha, • Y is the efficacy expressed in % mortality of the untreated control for test compound B at a concentration of n ppm respectively n g/ha, • E is the efficacy expressed in % mortality of the untreated control using the mixture of A and B at m and n ppm respectively m and n g/ha, then is
(§3) If the observed insecticidal efficacy of the combination is higher than the one calculated as “E”, then the combination of the two compounds is more than additive, i.e., there is a synergistic effect.
Solvent: 78.0 parts by weight of acetone
• 1.5 parts by weight of dimethylformamide Emulsifier: 0.5 parts by weight of alkylaryl polyglycolether To produce a suitable preparation of active compound, 1 part by weight of active compound is mixed with the stated amount of solvent and emulsifier, and the concentrate is diluted with emulsifier-containing water to the desired concentration. To produce a suitable preparation of a spore suspension the spores are diluted with emulsifier-containing water to the desired concentration.
Chinese cabbage (Brassica pekinensis) leaf-disks are sprayed with a preparation of the active ingredient of the desired concentration. Once dry, the leaf disks are infested with mustard beetle larvae (Phaedon cochleariae).
After the specified period of time, mortality in % is determined. 100% means all beetle larvae have been killed and 0% means none of the beetle larvae have been killed. The mortality values determined thus are recalculated using the Colby-formula (see sheet 1).

[2] = system: larvae of the diamondback moth (Plutella xylostella); test: Plutella xylostella - spray test; format: in vivo; details: 48 h, read-out: Efficacy in % after 2 d (mortality)
Method: as §1, §2, §3
Solvent: 7 parts by weight of dimethylformamide
Emulsifier: 2 parts by weight of alkylaryl polyglycolether […]
After the specified period of time, the mortality in % is determined. […] The mortality values determined thus are recalculated using the Colby-formula (see sheet 1).

[3] = read-out: Efficacy in % after 2 d (mortality)

Cc1cc(C(F)(C(F)(F)F)C(F)(F)F)ccc1NC(=O)c1cccc(Cl)c1C(=O)NC(C)(C)C#N [(I-5)]
mortality at 6 g/ha ([1]; 6 g ai/ha, after 2 d, Table A-2, read-out: Efficacy in % after 2 d (mortality)): 0% | mortality at 12 g/ha ([1]; 12 g ai/ha, after 2 d, Table A-2, read-out: Efficacy in % after 2 d (mortality)): 0% | mortality at 4 g/ha ([1]; foliar, 4 g ai/ha, Chinese cabbage leaf disks sprayed, after 2 d, Table A-1, read-out: Efficacy in % after 2 d (mortality)): 0% | mortality at 0.0625 ppm ([2]; 0.0625 ppm, cabbage leaves sprayed, after 2 d): 0%

CC[S+]([O-])c1c(C#N)nn(-c2c(Cl)cc(C(F)(F)F)cc2Cl)c1N (centres unmarked) [Ethiprole (II-2), ethiprole]
mortality at 1.2 g/ha [1, 3]: 33% | mortality at 0.8 g/ha ([1]; in Brassica rapa, foliar, read-out: Efficacy in % after 2 d (mortality)): 50%

N#Cc1nn(-c2c(Cl)cc(C(F)(F)F)cc2Cl)c(N)c1[S+]([O-])C(F)(F)F (centres unmarked) [Fipronil, fipronil]
mortality at 0.3 g/ha [1, 3]: 0% | mortality at 0.125 ppm ([2]; in Brassica oleracea): 45%
